Test results as given in patent US9598686B2, “Use of Galerina marginata genes and proteins for peptide production” (Board of Trustees of Michigan State University, priority 2007, dated 2017).
*1 amine or outer side, *2 acyl side, *3 side chain or, on linkers, in order; H or OH if unused. Where a SMILES comes first, the peptide text is derived from it. Bridges are numbered along the chain shown (N, C = ends). [ ]: non-standard residue; d: D form. Trp(2-SH) = 2-mercapto-L-tryptophan, O=C([C@H](Cc1c(S[*:3])[nH]c2ccccc12)N[*:1])[*:2]; Trp(2-yl) = O=C([C@H](Cc1c([*:3])[nH]c2ccccc12)N[*:1])[*:2]; Leu(4R-OH,5-OH) = C[C@](O)(CO)C[C@H](N)C(=O)O; Leu(4,5-diOH) = 4,5-dihydroxy-L-leucine; cisHyp = O=C(O)[C@@H]1C[C@H](O)CN1

Columns and labels:
[1] = test system: POPB (prolyl oligopeptidase) purified from Conocybe albipes; experiment: cleavage of synthetic model toxin propeptides by purified POP, reverse phase HPLC and MS; assay type: biochemical; details: products confirmed by MS/MS
Experimental: The responsible enzyme was purified. Specifically, Conocybe mushrooms were freeze-dried, ground in buffer, and the extracts concentrated by ammonium sulfate precipitation. After desalting, the proteins were fractionated by anion exchange high-performance liquid chromatography (or high pressure liquid chromatography, HPLC).
Fractions containing peptides were assayed using Z-Gly-Pro-pNA and the model phallacidin substrate. Reaction products were separated by reverse phase HPLC (FIG. 20). In some experiments the HPLC eluant was analyzed by MS, while in other cases the peaks of UV absorption were collected and analyzed by MS in the inventors lab and the central LC/MS facility, in particular for long HPLC run times. […] PepSeq within the MassLynx program was used to determine peptide sequences. The peptides eluting from HPLC were monitored at 280 nm.
Confirmation of reaction product structures was accomplished by MS/MS.

[2] = parenteral: inhalation, intravenous or intramuscular injection; cited from earlier work
[3] = oral; cited from earlier work
human = details: cited from earlier work

| Compound | cleavage by purified POP at flanking Pro residues [1] | toxicity when administered parenterally [2] | absorption by the mammalian digestive tract [3] | other results |
| --- | --- | --- | --- | --- |
| ATRLPIWGIGCNPCVGDD [synthetic amanitin precursor] | cut |  |  |  |
| C[C@@H]1NC(=O)[C@H](C[C@@](C)(O)CO)NC(=O)[C@@H]2Cc3c([nH]c4ccccc34)SC[C@H](NC(=O)[C@@H]([C@H](C)O)NC1=O)C(=O)N1C[C@@H](O)C[C@H]1C(=O)N[C@@H](C)C(=O)N2 [phalloidin, cyclic (L-alanyl-D-threonyl-L-cysteinyl-cis-4-hydroxy-L-prolyl-L-alanyl-2-mercapto-L-tryptophyl-4,5-dihydroxy-L-leucyl), cyclic (3,6)-sulfide] (cyclo(A[dT]C[cisHyp]A[Trp(2-yl)][Leu(4R-OH,5-OH)]); thioether 3-6) |  | poisonous | do not appear to be absorbed |  |
| cyclic (L-asparaginyl-4-hydroxy-L-prolyl-(R)-4,5-dihydroxy-L-isoleucyl-6-hydroxy-2-mercapto-L-tryptophylglycyl-L-isoleucylglycyl-L-cysteinyl), cyclic (4-8)-sulfide, (R)—S-oxide [α-amanitin] |  |  |  | fatal dose (human; fatal for at least 50% of people weighing approximately 100-110 kgs, amount one mature mushroom can contain): 10 to 12 mg; human LD50 (human; human): approximately 0.1 mg/kg |
| MSDINATRLPAWLATCPCAGDD [synthetic phalloidin peptide, synthesized model peptide mimicking the phalloidin proprotein] | cuts |  |  |  |
| ATRLPAWLVDCPCVGDD [synthetic phallacidin precursor] | cut |  |  |  |
| cyclic (L-alanyl-2-mercapto-L-tryptophyl-4,5-dihydroxy-L-leucyl-L-valyl-er-ythro-3-hydroxy-D-alpha-aspartyl-cysteinyl-cis-4-hydroxy-L-prolyl)cyclic (2-6)-sulfide (cyclo(A[Trp(2-SH)][Leu(4,5-diOH)]VDC[cisHyp]); thioether 2-6; not fully specified (residue 5)) [phallacidin] |  | poisonous | do not appear to be absorbed |  |
